Source: the RepoRT retention time repository (doi:10.1016/j.aca.2011.12.065)
Structures can show the parent of a compound that is named as a salt.

How the values were obtained:
[1] = RP, Waters ACQUITY UPLC BEH C18, 100 × 2.1 mm, 1.7 µm; A: water + 0.1% formic acid, pH 3; B: 80% acetonitrile + 20% acetone + 0.1% formic acid, pH 3; gradient (min/%B) 0/0 6/100; conditions: stereoisomer not certain
[2] = RP, Waters ACQUITY UPLC HSS T3, 100 × 2.1 mm, 1.8 µm; A: water + 0.1% formic acid, pH 3; B: 30% methanol + 70% acetonitrile + 0.1% formic acid, pH 3; gradient (min/%B) 0.0/5 1.0/8 2.0/15 3.0/40 4.0/70 4.5/100 5.0/100 6.4/100 6.6/5.0 6.8/5.0 7.0/5.0; conditions: stereoisomer not certain

| SMILES | LC retention time [1] [min] | LC retention time [2] [min] |
| --- | --- | --- |
| OCC1OC(OC2(CO)OC(CO)C(O)C2O)C(O)C(O)C1O (centres undefined) [sucrose] | 0.661 | 0.504 |
| COC1=C(OC)C(=O)C(CC=C(C)C)=C(C)C1=O [coenzyme q1] | 3.92 | 4.47 |
| NC(CCCC(=O)O)C(=O)O (racemic) [dl-2-aminoadipic acid] | 0.657 | 0.51 |
| Nc1ncnc2c1ncn2C1OC(CO)C(O)C1O (centres undefined) [Adenosine] | 1.34 | 0.857 |
| O=c1cc[nH]c(=O)[nH]1 [Uracil] | 0.752 | 0.628 |
| CC12CCC(=O)C=C1CCC1C2C(O)CC2(C)C1CCC2(O)C(=O)CO (centres undefined) [hydrocortisone, cortisol] | 2.63 | 3.87 |
| Cn1c(=N)ccn(C2OC(CO)C(O)C2O)c1=O (centres undefined) [3-methylcytidine methosulfate] | 0.986 | 0.619 |
| O=C([O-])c1cc(=O)[nH]c(=O)[nH]1 [orotic acid] | 0.719 | 0.588 |
| OCC1OC(Oc2c[nH]c3ccccc23)C(O)C(O)C1O (stereo not drawn) [indoxyl beta-d-glucoside] | 1.7 | 2.92 |
| Cn1c[n+](C2OC(CO)C(O)C2O)c2nc(N)[nH]c(=O)c21 (centres undefined) [7-methylguanosine] | 1.17 | 0.688 |
| O=C(O)Cc1ccccc1 [Phenylacetic acid] | 1.19 | 0.861 |
| O=C(O)C1CC(O)CN1 (stereo not drawn) [trans-4-hydroxy-l-proline] | 0.577 | 0.479 |
| O=C(O)C1OC(Oc2c[nH]c3ccccc23)C(O)C(O)C1O (stereo not drawn) [indoxyl beta-d-glucuronide cyclohexylammonium salt] | 1.7 | 2.95 |
| CC1NC(=NCCCC(N)C(=O)O)NC1=O (centres undefined) | 0.585 | 0.484 |
| Nc1nc2c(ncn2C2OC(CO)C(O)C2O)c(=O)[nH]1 (centres undefined) [guanosine] | 1.26 | 1.18 |
| O=C(O)C1CCCN1 (centres undefined) [Proline] | 0.626 | 0.506 |
| CC(CCC(=O)NCC(=O)O)C1CCC2C3C(O)CC4CC(O)CCC4(C)C3CCC12C (centres undefined) [glycochenodeoxycholic acid] | 3.46 | 4.23 |
| Cn1c(=O)c2c(ncn2C)n(C)c1=O [Caffeine] | 1.65 | 3.13 |
| O=C(O)CCCCCCCC(=O)O [Azelaic acid] | 2.26 | 3.63 |
| OC1C(O)C(O)C(O)C(O)C1O (centres undefined) [myo-inositol] | 0.571 | 0.465 |
| Nc1c(O)cccc1C(=O)CC(N)C(=O)O (racemic) [3-hydroxy-dl-kynurenine] | 1.03 | 0.786 |
| CCCCCCCCCCCC(=O)OC(CC(=O)[O-])C[N+](C)(C)C (stereo not drawn) [lauroyl l-carnitine] | 3.38 | 4.2 |
| CNCC(=O)O [sarcosine] | 0.574 | 0.468 |
| CC1(O)CCOC(=O)C1 (centres undefined) [Mevalonolactone] | 1.38 | 1.19 |

| SMILES | LC retention time [1] [min] | LC retention time [2] [min] |
| --- | --- | --- |
| CN1C(=O)CCC1c1cccnc1 (single isomer, unassigned; (-)) [(-)-Cotinine] | 1.26 | 0.793 |
| CCCCCCCCCCCCCCCC(=O)OCC(O)COP(=O)([O-])OCC[N+](C)(C)C (centres undefined) [lysoPC(16:0/0:0)] | 4.4 | 4.7 |
| COc1cc(C(=O)O)ccc1O [Vanillic acid] | 1.78 | 3.17 |
| O=C(O)C(O)Cc1c[nH]c2ccccc12 (racemic) [dl-3-indolelactic acid] | 2.13 | 3.52 |
| CCCCCCCCC=CCCCCCCCC(=O)OCC(O)COP(=O)([O-])OCC[N+](C)(C)C (centres undefined) [lysoPC(18:1(9Z)/0:0)] | 4.5 | 4.72 |
| O=Cc1ccc(O)cc1 [4-hydroxybenzaldehyde] | 1.91 | 3.3 |
| O=C1CCC(C(=O)N2CCCC2C(=O)O)N1 (centres undefined) [pglu-pro] | 1.43 | 2.02 |
| CC(CCC(=O)O)C1CCC2C3C(=O)CC4CC(=O)CCC4(C)C3CC(=O)C12C (centres undefined) [dehydrocholic acid] | 2.98 | 4.05 |
| CC(O)C(N)C(=O)O (centres undefined) [Threonine] | 0.574 | 0.475 |
| CCCCCCCCCCCC(=O)N(C)CC(=O)O [n-lauroylsarcosine] | 4.27 | 4.6 |
| Cn1cnc2c(ncn2C2OC(CO)C(O)C2O)c1=N (centres undefined) [1-methyladenosine] | 1.3 | 1.63 |
| Cn1cnc(C[C@H](N)C(=O)O)c1 [1-Methyl-L-Histidine] | 0.531 | 0.425 |
| CC(=O)NC(CC(=O)O)C(=O)NC(CCC(=O)O)C(=O)O (centres undefined) [n-acetyl-asp-glu] | 1.28 | 0.863 |
| Nc1ncnc2nc[nH]c12 [Adenine] | 0.685 | 0.538 |
| O=c1[nH]cnc2nc[nH]c12 [hypoxanthine] | 0.882 | 0.706 |
| O=c1[nH]c(=O)c2[nH]c(=O)[nH]c2[nH]1 [Uric acid] | 0.752 | 0.618 |
| NC(=O)c1cccnc1 [nicotinamide] | 0.969 | 0.722 |
| NCCCCC(N)C(=O)O (stereo not drawn) [l-lysine] | 0.51 | 0.404 |
| NC(=O)NCCCC(N)C(=O)O (centres undefined) [Citrulline] | 0.575 | 0.47 |
| Nc1ccn(C2OC(CO)C(O)C2O)c(=S)n1 (centres undefined) [2-thiocytidine dihydrate] | 0.986 | 0.619 |
| Cn1c(=O)[nH]c2[nH]c(=O)[nH]c2c1=O [1-methyluric acid] | 1.28 | 1.27 |
| OCC1OC(OC2C(CO)OC(O)C(O)C2O)C(O)C(O)C1O (centres undefined) [alfa-lactose monohydrate] | 0.6 | 0.476 |
| O=C(O)CCCCCC(=O)O [Pimelic acid] | 1.72 | 3.17 |
| CC(CCC(=O)NCCS(=O)(=O)O)C1CCC2C3CCC4CC(O)CCC4(C)C3CC(O)C12C (centres undefined) [taurodeoxycholic acid] | 3.33 | 4.46 |

| SMILES | LC retention time [1] [min] | LC retention time [2] [min] |
| --- | --- | --- |
| NCCc1c[nH]c2ccccc12 [tryptamine hydrochloride] | 1.53 | 2.65 |
| CSCCC(NC(=O)Cc1ccccc1)C(=O)O (centres undefined) [N-phenylacetyl-methionine] | 2.58 | 3.79 |
| CC12CCC(=O)C=C1CCC1C2C(=O)CC2(C)C1CCC2(O)C(=O)CO (centres undefined) [Cortisone] | 2.61 | 3.84 |
| Cc1cn(C2OC(CO)C(O)C2O)c(=O)nc1N (centres undefined) [5-methylcytidine] | 1.28 | 1.18 |
| O=C(O)CCCCC(=O)O [Adipic acid] | 1.5 | 2.33 |
| O=C(O)C(O)Cc1ccc(O)cc1 (stereo not drawn) [(DL)-p-hydroxyphenyllactic acid] | 1.54 | 2.66 |
| NC(CCCCNC(=O)CO)C(=O)O (centres undefined) [GALA ((2s)-2-amino-6-(2-hydroxy-acetylamino)-hexanoic acid)] | 0.676 | 0.527 |
| O=C1CCCCN1 [delta-valerolactam] | 1.39 | 1.69 |
| CC(C)(CO)C(O)C(=O)NCCC(=O)NCCSSCCNC(=O)CCNC(=O)C(O)C(C)(C)CO (stereo not drawn) [d-pantethine] | 1.87 | 3.44 |
| NCCCC(N)C(=O)O (stereo not drawn) [l-ornithine monohydrochloride] | 0.517 | 0.415 |
| CN(C)CC(=O)O [N,N-dimethylglycine] | 0.572 | 0.47 |
| CC(CCC(=O)O)C1CCC2C3C(O)CC4CC(O)CCC4(C)C3CC(O)C12C (centres undefined) [Cholic acid] | 3.4 | 4.46 |
| COc1cc(C=O)ccc1O [vanillin] | 2.03 | 3.45 |
| CC(=O)Nc1ccc(C(=O)O)cc1 [4-acetamidobenzoic acid] | 1.71 | 3.23 |
| O=C(O)CCCC(=O)O [Glutaric acid] | 1.37 | 1.32 |
| CC(C)c1cc2c(c(O)c1O)C13CCCC(C)(C)C1CC2OC3=O (centres undefined) [carnosol] | 4 | 4.51 |
| Cc1cc2nc3c(=O)[nH]c(=O)nc-3n(CC(O)C(O)C(O)CO)c2cc1C (centres undefined) [Riboflavin] | 1.68 | 3.38 |
| NCCS(=O)(=O)O [Taurine] | 0.556 | 0.47 |
| Cn1c(=O)[nH]c(=O)c2[nH]cnc21 [3-methylxanthine] | 1.28 | 1.45 |
| Nc1ccc(C(=O)O)cc1 [paba] | 1.5 | 2.09 |
| CC(CCC(=O)NCCS(=O)(=O)O)C1CCC2C3C(O)CC4CC(O)CCC4(C)C3CC(O)C12C (centres undefined) [Taurocholic acid] | 2.85 | 4.26 |
| O=C(O)CNC(=O)c1ccccc1 [Hippuric acid] | 1.77 | 3.1 |
| NC(CCCCNCC(=O)O)C(=O)O (centres undefined) [cml] | 0.676 | 0.527 |
| CNC(C)(C)C(=O)O [alfa-(methylamino)isobutyric acid] | 0.712 | 0.531 |
